Test results published in PMC12337082 (Journal of Biochemical and Molecular Toxicology, 2025).

Legend:
Format in all cases: cell-based, human
MDA‐MB‐231 [1] = assay: Annexin V/PI staining, Tali image‐based cytometry, MDA‐MB‐231; conditions: MDA‐MB‐231, 24 h
Text: To assess apoptosis and cell death, cells were stained with Annexin V‐PI dyes (Tali Apoptosis Kit‐Annexin V Alexa Fluor 488 and PI‐, Molecular Probes A10788, Invitrogen) and quantified using Tali Image‐Based Cytometer (Invitrogen) and fluorescence microscopy (Olympus CKX41 Inverted Phase Contrast Fluorescence Microscope furbished with reflected fluorescence illuminator CKX‐RFA).
To assess whether our compounds produce their cytotoxic effects through induction of apoptosis, apoptosis was investigated using Annexin V/PI labeling and MMP methods (Figures 4A−C). In addition, by utilizing TALI image‐based cytometry and fluorescent microscopy, the number of cells was analyzed for different concentrations of agents (Table 4).

MDA‐MB‐231 [2] = assay: MTT cell viability assay, MDA‐MB‐231; conditions: for IC50: MTT
Text: MCF‐7, MDA‐MB‐231, and L‐929 mouse fibroblast cell lines were obtained from the American Type Culture Collection (ATCC, Manassas, Virginia, USA). MCF‐7 is a hormone‐responsive, differentiated mammary epithelium cell line with an ER+, PR+, and HER2‐ pattern (ATCC, HTB‐22). MDA‐MB‐231 is a triple‐negative differentiated mammary epithelium cell line (ATCC, HTB‐26). The L‐929 mouse fibroblast cell line is derived from the normal subcutaneous connective tissue of a mouse and is commonly used in cytotoxicity assays (ATCC, CCL‐1). All cell lines were cultured in DMEM medium (Dulbecco's Modified Eagle Medium, Gibco), supplemented with 10% fetal bovine serum (Gibco), 1% glutamine, and penicillin/streptomycin (Gibco) in a humidified atmosphere containing 5% CO2 at 37°C. Cell viability was tested using Trypan blue staining.
The MTT [3‐(4,5‐dimethylthiazol‐2‐yl)−2,5‐diphenyltetrazolium bromide] assay is a colorimetric assay for determining cell metabolic activity. In the MTT assay, the yellow dye MTT that dissolves in water is changed by mitochondrial reductase into a purple formazan that is non‐soluble. The water‐insoluble formazan produced is solubilized in a solubilization buffer, and absorbances are detected.
In 96‐well plates, the cells were cultivated at a density of 5 × 10^3 cells/well using 100 µL medium. […] 10 μL of the MTT labeling reagent (final concentration 0.5 mg/mL) were added to each well at the end of the incubation periods, and the wells were incubated for an additional 4 h. Next, each well received 100 μL of solubilization buffer (10% SDS in 0.01 M HCl) and was overnight incubated, and the absorbance of formazan products was evaluated at 550 nm using a multi‐mode microplate reader (Synergy H1, Biotech Instruments Inc., Vermont, USA). The results were normalized relative to the absorbances of calculated percent concentrations of DMSO. All tests involved three replicates with three independent experiments.
All statistical evaluations, including t‐tests and IC50 values, were calculated using the GraphPad Prism software tool (v6.0, GraphPad Software Inc., San Diego, USA). Statistical significance was defined as p ˂ 0.05 (*p < 0.05, **p < 0.01, ***p < 0.001, ****p < 0.0001).

Bax/Bcl‐2 ratio = assay: Western blot Bax/Bcl‐2 ratio in breast cancer cell lines; conditions: both cell lines, 50 µM, 24 h
Protocol: Total protein levels were measured using the Take3 Multi‐Volume Plate (Synergy H1, BioTek Instruments Inc., Vermont, USA). In accordance with the classical protocol, transferred proteins were exposed to the following primary antibodies: Beta‐actin (NB600‐501, Novus Biologicals), Bax (SPM336, NBP2‐32809), Bcl‐2 (100/D5, NBP2‐15200), cleaved PARP (194C1439, NBP2‐27335), and COX‐2 (D‐12:sc‐166475, Santa Cruz). The bands were visualized with chemiluminescent HRP substrates (Western Bright ECL‐Advansta, K‐12045‐050). Using a chemiluminescence imaging system (Celvin S, BioStep), the relative quantification was done based on the level of β‐actin proteins.

CCc1cccc2c3c([nH]c12)C(CC)(CC(=O)N/N=C/c1ccc(OC)cc1)OCC3 (racemic) [SGK 206, 2‐(1,8‐Diethyl‐1,3,4,9‐tetrahydropyrano[3,4‐b]indole‐1‐yl) acetic acid[(4‐methoxyphenyl)methylene]acetohydrazide]
Apoptotic cells (MDA‐MB‐231 [1]; 25 µM): 1% | Dead cells (MDA‐MB‐231 [1]; 25 µM): 2% | Live cells (MDA‐MB‐231 [1]; 25 µM): 97% | Apoptotic cells (MDA‐MB‐231 [1]; 50 µM): 4% | Dead cells (MDA‐MB‐231 [1]; 50 µM): 3% | Live cells (MDA‐MB‐231 [1]; 50 µM): 93% | Apoptotic cells (MDA‐MB‐231 [1]; 75 µM): 8% | Dead cells (MDA‐MB‐231 [1]; 75 µM): 25% | Live cells (MDA‐MB‐231 [1]; 75 µM): 67% | IC50 (MDA‐MB‐231 [2]; Homo sapiens, MDA-MB-231, 24 h, MDA‐MB‐231, 24 h): 43 µM | IC50 (MDA‐MB‐231 [2]; Homo sapiens, MDA-MB-231, 48 h, MDA‐MB‐231, 48 h): 38 ± 2.3 µM | IC50 (MDA‐MB‐231 [2]; Homo sapiens, MDA-MB-231, 72 h, MDA‐MB‐231, 72 h): 36 ± 3.19 µM | IC50 (MDA‐MB‐231 [2]; MDA‐MB‐231, 24 h): 43.2 ± 1.94 µM | Selectivity index (SI) (MDA‐MB‐231 [2]; MDA‐MB‐231 in comparison to L‐929, 24 h): 1.65 | Selectivity index (SI) (MDA‐MB‐231 [2]; MDA‐MB‐231 in comparison to L‐929, 48 h): 1.26 | Selectivity index (SI) (MDA‐MB‐231 [2]; MDA‐MB‐231 in comparison to L‐929, 72 h): 1.38 | Bax/Bcl‐2 ratio change (Bax/Bcl‐2 ratio): significantly increased
